Test results: patent US20160138113A1, “METHODS AND COMPOSITIONS FOR THE DIAGNOSIS, PROGNOSIS AND TREATMENT OF BRAIN METASTASIS” (MEMORIAL SLOAN-KETTERING CANCER CENTER, priority 2013, published 2016)

System: CTSS
Experiment: shRNA-mediated CTSS knockdown in Br-M cells (qPCR, western blot)
Assay type: cell-based, human
Excerpt: Five shRNA sequences targeting CTSS were obtained from the RNAi Codex and RNAi Consortium. shRNA sequences were inserted into the targeting hairpin sequence for the pRetroSuper vector. Correct insertion into the vector was verified by digestion and sequencing of the vector. Plasmids with the correct shRNA targeting sequence were transfected into H29 viral packaging cells. Viral particles were concentrated from the H29 cell supernatant, added to the target cells in the presence of polybrene and cells were selected with puromycin. One of the […] shRNAs (CTSS shRNA: GATAAAGTTTGCTAAGTAA—TTACTTAGCAAACTTTATC) was used for subsequent experiments to target CTSS with 90% KD efficiency. A non-targeting shRNA [CGCCATAAATATAACTTTA—TAAAGTTATATTTATGGCG] was used as control.
RNA was isolated with Trizol, DNase treated, and 0.2 μg of RNA was used for cDNA synthesis. Details about the Taqman assays can be found in Table 4. […]
Conditioned media (CM) from Br-M cell lines was generated by incubating confluent cell layers in serum-free DMEM media for 24 hours. […] Protein was quantified using the BCA assay (Pierce). […] Membranes were probed with antibodies as indicated in Table 5 and detected using the appropriate HRP-conjugated secondary antibodies using chemoluminescence detection (Millipore). Bands from western blots were quantified in the dynamic range using the Gel analysis module in ImageJ software.

## CTSS shRNA: shRNA targeting CTSS: GATAAAGTTTGCTAAGTAA—TTACTTAGCAAACTTTATC, in pRetroSuper vector (loop; in pRetroSuper vector)
  CTSS KD efficiency: 90%
